Key:
Type in all cases: in vivo
[1] = test system: Abutilon; experiment: Pre-emergent herbicidal action (B.2); conditions: 500 bis 2000 [g/ha], evaluated after 3 weeks
Summary of the method: (§1)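 Immediately after sowing in greenhouse, soil surface sprayed with aqueous dispersion of an emulsion concentrate at 2000-500 g active ingredient/ha. Plants kept at 22-25 °C, 50-70% relative humidity; damage rated after 3 weeks on a 1 (dead/not germinated) to 9 (normal growth) scale.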

[2] = test system: Alopecurus myos.; experiment: Pre-emergent herbicidal action (B.2); conditions: 500 bis 2000 [g/ha], evaluated after 3 weeks
Summary of the method: as §1

[3] = test system: Amaranthus ret.; experiment: Pre-emergent herbicidal action (B.2); conditions: 500 bis 2000 [g/ha], evaluated after 3 weeks
Summary of the method: as §1

[4] = test system: Avena fatua; experiment: Pre-emergent herbicidal action (B.2); conditions: 500 bis 2000 [g/ha], evaluated after 3 weeks
Summary of the method: as §1

[5] = test system: Bromus tectorum; experiment: Pre-emergent herbicidal action (B.2); conditions: 500 bis 2000 [g/ha], evaluated after 3 weeks
Summary of the method: as §1

[6] = test system: Chenopodium Sp.; experiment: Pre-emergent herbicidal action (B.2); conditions: 500 bis 2000 [g/ha], evaluated after 3 weeks
Summary of the method: as §1

[7] = test system: Chrysanthe. leuc.; experiment: Pre-emergent herbicidal action (B.2); conditions: 500 bis 2000 [g/ha], evaluated after 3 weeks
Summary of the method: as §1

[8] = test system: Digitaria sang.; experiment: Pre-emergent herbicidal action (B.2); conditions: 500 bis 2000 [g/ha], evaluated after 3 weeks
Summary of the method: as §1

[9] = test system: Echinochloa crus galli; experiment: Pre-emergent herbicidal action (B.2); conditions: 500 bis 2000 [g/ha], evaluated after 3 weeks
Summary of the method: as §1

[10] = test system: Galium aparine; experiment: Pre-emergent herbicidal action (B.2); conditions: 500 bis 2000 [g/ha], evaluated after 3 weeks
Summary of the method: as §1

[11] = test system: Ipomoea; experiment: Pre-emergent herbicidal action (B.2); conditions: 500 bis 2000 [g/ha], evaluated after 3 weeks
Summary of the method: as §1

[12] = test system: Lolium perenne; experiment: Pre-emergent herbicidal action (B.2); conditions: 500 bis 2000 [g/ha], evaluated after 3 weeks
Summary of the method: as §1

[13] = test system: Sinapis; experiment: Pre-emergent herbicidal action (B.2); conditions: 500 bis 2000 [g/ha], evaluated after 3 weeks
Summary of the method: as §1

[14] = test system: Solanum nigrum; experiment: Pre-emergent herbicidal action (B.2); conditions: 500 bis 2000 [g/ha], evaluated after 3 weeks
Summary of the method: as §1

[15] = test system: Sorghum halep.; experiment: Pre-emergent herbicidal action (B.2); conditions: 500 bis 2000 [g/ha], evaluated after 3 weeks
Summary of the method: as §1

[16] = test system: Stellaria; experiment: Pre-emergent herbicidal action (B.2); conditions: 500 bis 2000 [g/ha], evaluated after 3 weeks
Summary of the method: as §1

[17] = test system: Veronica Sp.; experiment: Pre-emergent herbicidal action (B.2); conditions: 500 bis 2000 [g/ha], evaluated after 3 weeks
Summary of the method: as §1

[18] = test system: Soja; experiment: Pre-emergent herbicidal action (B.2), crop tolerance; conditions: 500 bis 2000 [g/ha], evaluated after 3 weeks
Experimental: (§2) Im Gewächshaus wird unmittelbar nach der Einsaat der Versuchspflanzen in Saatschalen die Erdoberfläche mit einer wässrigen Dispersion der Wirkstoffe, erhalten aus einem 25 %igen Emulsionskonzentrat behandelt. Es werden Konzentrationen von 2000-500 g Wirksubstanz/Hektar angewendet. Die Saatschalen werden im Gewächshaus bei 22-25° C und 50-70 % relativer Luftfeuchtigkeit gehalten und der Versuch nach 3 Wochen ausgewertet und die Resultate nach folgender Notenskala ausgewertet. • 1 Pflanze hat nicht gekeimt oder ist eingegangen • 2-3 sehr starke Schäden • 4 starke Schäden • 5 mittlere Schäden, die Pflanzen sind verkümmert • 6 Schäden, die Pflanze kann regenerieren • 7-8 leichte Schäden • 9 normales Wachstum, wie das unbehandelter Pflanzen
(§3) Boniturnoten von 1 bis 4 (insbesondere von 1 bis 3) weisen auf eine gute bis sehr gute Herbizidwirkung hin. Boniturnoten von 6 bis 9 (insbesondere 7 bis 9) weisen auf eine gute Toleranz (insbesondere bei Kulturpflanzen) hin.

[19] = test system: Abutilon; experiment: Post-emergent herbicidal action, contact herbicide (B.3); conditions: 500 bis 2000 [g/ha], 15 days after treatment
Summary of the method: (§4)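 Monocot and dicot weeds are grown to the 4- to 6-leaf stage and then sprayed with the compound as an aqueous dispersion at 2000-500 g/ha. They are kept at 24-26 °C and 45-60% RH for 15 days. Injury is then rated from 1 (plant dead) to 9 (like untreated controls).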

[20] = test system: Alopecurus myos.; experiment: as above; conditions: 500 bis 2000 [g/ha], 15 days after treatment
Summary of the method: as §4

[21] = test system: Amaranthus ret.; experiment: as above; conditions: 500 bis 2000 [g/ha], 15 days after treatment
Summary of the method: as §4

[22] = test system: Avena fatua; experiment: as above; conditions: 500 bis 2000 [g/ha], 15 days after treatment
Summary of the method: as §4

[23] = test system: Bromus tectorum; experiment: as above; conditions: 500 bis 2000 [g/ha], 15 days after treatment
Summary of the method: as §4

[24] = test system: Chenopodium Sp.; experiment: as above; conditions: 500 bis 2000 [g/ha], 15 days after treatment
Summary of the method: as §4

[25] = test system: Chrysanthe. leuc.; experiment: as above; conditions: 500 bis 2000 [g/ha], 15 days after treatment
Summary of the method: as §4

[26] = test system: Digitaria sang.; experiment: as above; conditions: 500 bis 2000 [g/ha], 15 days after treatment
Summary of the method: as §4

[27] = test system: Echinochloa crus galli; experiment: as above; conditions: 500 bis 2000 [g/ha], 15 days after treatment
Summary of the method: as §4

[28] = test system: Galium aparine; experiment: as above; conditions: 500 bis 2000 [g/ha], 15 days after treatment
Summary of the method: as §4

[29] = test system: Lolium perenne; experiment: as above; conditions: 500 bis 2000 [g/ha], 15 days after treatment
Summary of the method: as §4

[30] = test system: Sinapis; experiment: as above; conditions: 500 bis 2000 [g/ha], 15 days after treatment
Summary of the method: as §4

[31] = test system: Solanum nigrum; experiment: as above; conditions: 500 bis 2000 [g/ha], 15 days after treatment
Summary of the method: as §4

[32] = test system: Sorghum halep.; experiment: as above; conditions: 500 bis 2000 [g/ha], 15 days after treatment
Summary of the method: as §4

[33] = test system: Stellaria; experiment: as above; conditions: 500 bis 2000 [g/ha], 15 days after treatment
Summary of the method: as §4

[34] = test system: Veronica Sp.; experiment: as above; conditions: 500 bis 2000 [g/ha], 15 days after treatment
Summary of the method: as §4

[35] = test system: Xanthium Sp.; experiment: as above; conditions: 500 bis 2000 [g/ha], 15 days after treatment
Summary of the method: as §4

[36] = test system: Baumwolle; experiment: Post-emergent herbicidal action (B.3), crop tolerance; conditions: 500 bis 2000 [g/ha], 15 days after treatment
Experimental: as §2, §3
(§5) Eine Anzahl Unkräuter, sowohl monokotyle wie dikotyle, werden nach dem Auflaufen (im 4- bis 6-Blattstadium) mit einer wässrigen Wirkstoffdispersion in einer Dosierung von 2000-500 g Wirksubstanz pro Hektar auf die Pflanzen gespritzt und diese bei 24°-26°C und 45-60 % relativer Luftfeuchtigkeit gehalten. 15 Tage nach der Behandlung wird der Versuch nach dem in Beispiel B.2. gegebenen Massstab bewertet.

[37] = test system: Soja; experiment: as above; conditions: 500 bis 2000 [g/ha], 15 days after treatment
Experimental: as §2, §3, §5

Structure (SMILES): CC1CCCc2nc(C3=NC(=O)C(C)(C(C)C)N3)c(C(=O)O)cc21 (stereo not shown) [Verbindung 2.02, 2-(5-Isopropyl-5-methyl-1 H-imidazol-4-on-2-yl)-5-methyl-5,6,7,8-tetrahydrochinolin-3-carbonsäure]
- Herbizidwirkung [1]: gute bis sehr gute Herbizidwirkung (Boniturnoten von 1 bis 4 (insbesondere von 1 bis 3) weisen auf eine gute bis sehr gute Herbizidwirkung hin)
- Herbizidwirkung [2]: gute bis sehr gute Herbizidwirkung (Boniturnoten von 1 bis 4 (insbesondere von 1 bis 3) weisen auf eine gute bis sehr gute Herbizidwirkung hin)
- Herbizidwirkung [3]: gute bis sehr gute Herbizidwirkung (Boniturnoten von 1 bis 4 (insbesondere von 1 bis 3) weisen auf eine gute bis sehr gute Herbizidwirkung hin)
- Herbizidwirkung [4]: gute bis sehr gute Herbizidwirkung (Boniturnoten von 1 bis 4 (insbesondere von 1 bis 3) weisen auf eine gute bis sehr gute Herbizidwirkung hin)
- Herbizidwirkung [5]: gute bis sehr gute Herbizidwirkung (Boniturnoten von 1 bis 4 (insbesondere von 1 bis 3) weisen auf eine gute bis sehr gute Herbizidwirkung hin)
- Herbizidwirkung [6]: gute bis sehr gute Herbizidwirkung (Boniturnoten von 1 bis 4 (insbesondere von 1 bis 3) weisen auf eine gute bis sehr gute Herbizidwirkung hin)
- Herbizidwirkung [7]: gute bis sehr gute Herbizidwirkung (Boniturnoten von 1 bis 4 (insbesondere von 1 bis 3) weisen auf eine gute bis sehr gute Herbizidwirkung hin)
- Herbizidwirkung [8]: gute bis sehr gute Herbizidwirkung (Boniturnoten von 1 bis 4 (insbesondere von 1 bis 3) weisen auf eine gute bis sehr gute Herbizidwirkung hin)
- Herbizidwirkung [9]: gute bis sehr gute Herbizidwirkung (Boniturnoten von 1 bis 4 (insbesondere von 1 bis 3) weisen auf eine gute bis sehr gute Herbizidwirkung hin)
- Herbizidwirkung [10]: gute bis sehr gute Herbizidwirkung (Boniturnoten von 1 bis 4 (insbesondere von 1 bis 3) weisen auf eine gute bis sehr gute Herbizidwirkung hin)
- Herbizidwirkung [11]: gute bis sehr gute Herbizidwirkung (Boniturnoten von 1 bis 4 (insbesondere von 1 bis 3) weisen auf eine gute bis sehr gute Herbizidwirkung hin)
- Herbizidwirkung [12]: gute bis sehr gute Herbizidwirkung (Boniturnoten von 1 bis 4 (insbesondere von 1 bis 3) weisen auf eine gute bis sehr gute Herbizidwirkung hin)
- Herbizidwirkung [13]: gute bis sehr gute Herbizidwirkung (Boniturnoten von 1 bis 4 (insbesondere von 1 bis 3) weisen auf eine gute bis sehr gute Herbizidwirkung hin)
- Herbizidwirkung [14]: gute bis sehr gute Herbizidwirkung (Boniturnoten von 1 bis 4 (insbesondere von 1 bis 3) weisen auf eine gute bis sehr gute Herbizidwirkung hin)
- Herbizidwirkung [15]: gute bis sehr gute Herbizidwirkung (Boniturnoten von 1 bis 4 (insbesondere von 1 bis 3) weisen auf eine gute bis sehr gute Herbizidwirkung hin)
- Herbizidwirkung [16]: gute bis sehr gute Herbizidwirkung (Boniturnoten von 1 bis 4 (insbesondere von 1 bis 3) weisen auf eine gute bis sehr gute Herbizidwirkung hin)
- Herbizidwirkung [17]: gute bis sehr gute Herbizidwirkung (Boniturnoten von 1 bis 4 (insbesondere von 1 bis 3) weisen auf eine gute bis sehr gute Herbizidwirkung hin)
- Toleranz (im Wachstum beeinflusst) [18]: gute Toleranz (Boniturnoten von 6 bis 9 (insbesondere 7 bis 9) weisen auf eine gute Toleranz (insbesondere bei Kulturpflanzen) hin)
- Herbizidwirkung [19]: gute bis sehr gute Herbizidwirkung (Boniturnoten von 1 bis 4 (insbesondere von 1 bis 3) weisen auf eine gute bis sehr gute Herbizidwirkung hin)
- Herbizidwirkung [20]: gute bis sehr gute Herbizidwirkung (Boniturnoten von 1 bis 4 (insbesondere von 1 bis 3) weisen auf eine gute bis sehr gute Herbizidwirkung hin)
- Herbizidwirkung [21]: gute bis sehr gute Herbizidwirkung (Boniturnoten von 1 bis 4 (insbesondere von 1 bis 3) weisen auf eine gute bis sehr gute Herbizidwirkung hin)
- Herbizidwirkung [22]: gute bis sehr gute Herbizidwirkung (Boniturnoten von 1 bis 4 (insbesondere von 1 bis 3) weisen auf eine gute bis sehr gute Herbizidwirkung hin)
- Herbizidwirkung [23]: gute bis sehr gute Herbizidwirkung (Boniturnoten von 1 bis 4 (insbesondere von 1 bis 3) weisen auf eine gute bis sehr gute Herbizidwirkung hin)
- Herbizidwirkung [24]: gute bis sehr gute Herbizidwirkung (Boniturnoten von 1 bis 4 (insbesondere von 1 bis 3) weisen auf eine gute bis sehr gute Herbizidwirkung hin)
- Herbizidwirkung [25]: gute bis sehr gute Herbizidwirkung (Boniturnoten von 1 bis 4 (insbesondere von 1 bis 3) weisen auf eine gute bis sehr gute Herbizidwirkung hin)
- Herbizidwirkung [26]: gute bis sehr gute Herbizidwirkung (Boniturnoten von 1 bis 4 (insbesondere von 1 bis 3) weisen auf eine gute bis sehr gute Herbizidwirkung hin)
- Herbizidwirkung [27]: gute bis sehr gute Herbizidwirkung (Boniturnoten von 1 bis 4 (insbesondere von 1 bis 3) weisen auf eine gute bis sehr gute Herbizidwirkung hin)
- Herbizidwirkung [28]: gute bis sehr gute Herbizidwirkung (Boniturnoten von 1 bis 4 (insbesondere von 1 bis 3) weisen auf eine gute bis sehr gute Herbizidwirkung hin)
- Herbizidwirkung [29]: gute bis sehr gute Herbizidwirkung (Boniturnoten von 1 bis 4 (insbesondere von 1 bis 3) weisen auf eine gute bis sehr gute Herbizidwirkung hin)
- Herbizidwirkung [30]: gute bis sehr gute Herbizidwirkung (Boniturnoten von 1 bis 4 (insbesondere von 1 bis 3) weisen auf eine gute bis sehr gute Herbizidwirkung hin)
- Herbizidwirkung [31]: gute bis sehr gute Herbizidwirkung (Boniturnoten von 1 bis 4 (insbesondere von 1 bis 3) weisen auf eine gute bis sehr gute Herbizidwirkung hin)
- Herbizidwirkung [32]: gute bis sehr gute Herbizidwirkung (Boniturnoten von 1 bis 4 (insbesondere von 1 bis 3) weisen auf eine gute bis sehr gute Herbizidwirkung hin)
- Herbizidwirkung [33]: gute bis sehr gute Herbizidwirkung (Boniturnoten von 1 bis 4 (insbesondere von 1 bis 3) weisen auf eine gute bis sehr gute Herbizidwirkung hin)
- Herbizidwirkung [34]: gute bis sehr gute Herbizidwirkung (Boniturnoten von 1 bis 4 (insbesondere von 1 bis 3) weisen auf eine gute bis sehr gute Herbizidwirkung hin)
- Herbizidwirkung [35]: gute bis sehr gute Herbizidwirkung (Boniturnoten von 1 bis 4 (insbesondere von 1 bis 3) weisen auf eine gute bis sehr gute Herbizidwirkung hin)
- Toleranz (im Wachstum beeinflusst) [36]: gute Toleranz (Boniturnoten von 6 bis 9 (insbesondere 7 bis 9) weisen auf eine gute Toleranz (insbesondere bei Kulturpflanzen) hin)
- Toleranz (im Wachstum beeinflusst) [37]: gute Toleranz (Boniturnoten von 6 bis 9 (insbesondere 7 bis 9) weisen auf eine gute Toleranz (insbesondere bei Kulturpflanzen) hin)

Reference: patent publication EP0327492A1, “Herbicidally and plantgrowth regulatory active quinoline and pyrindine compounds” (CIBA-GEIGY AG, priority 1988, dated 1989)
